According to ChEMBL document CHEMBL5154929, “Optimization of the Natural Product Calothrixin A to Discover Novel Dual Topoisomerase I and II Inhibitors with Improved Anticancer Activity” (J Med Chem, 2022):

Experiments:
SH-SY5Y = test: Cytotoxicity against human SH-SY5Y cells expressing low level of topoisomerase I/II measured after 72 hrs by MTT assay; assay type: functional, cell-based
MDA-MB-231 = test: Cytotoxicity against human MDA-MB-231 cells expressing high level of topoisomerase I/II measured after 72 hrs by MTT assay; assay type: functional, cell-based; conditions: MDA-MB-231, 72 h
HCT-116 = test: Cytotoxicity against human HCT-116 cells expressing high level of topoisomerase I/II measured after 72 hrs by MTT assay; assay type: functional, cell-based; conditions: HCT-116, 72 h
MCF7 = test: Cytotoxicity against human MCF7 cells expressing high level of topoisomerase I/II measured after 72 hrs by MTT assay; assay type: functional, cell-based; conditions: MCF7, 72 h
A-375 = test: Cytotoxicity against human A-375 cells expressing high level of topoisomerase I/II measured after 72 hrs by MTT assay; assay type: functional, cell-based; conditions: A-375, 72 h
A549 = test: Cytotoxicity against human A549 cells expressing high level of topoisomerase I/II measured after 72 hrs by MTT assay; assay type: functional, cell-based; conditions: A549, 72 h
[1] = Cytotoxicity against human L02 cells measured after 72 hrs by MTT assay; assay type: toxicity, cell-based
[2] = Cytotoxicity against human HEK293T cells measured after 72 hrs by MTT assay; assay type: toxicity, cell-based, HEK-293T

Structure (SMILES) | IC50 (SH-SY5Y) [nM] | IC50 (MDA-MB-231) [nM] | IC50 (HCT-116) [nM] | IC50 (MCF7) [nM] | IC50 (A-375) [nM] | IC50 (A549) [nM] | IC50 at 72 h [1] [nM] | IC50 at 72 h [2] [nM]
O=C1c2c[n+]([O-])c3ccccc3c2C(=O)c2c1c1ccccc1n2Cc1cn([C@@H]2O[C@H](CO)[C@@H](O)[C@H](O)[C@H]2O)nn1 | 880 | 650 | 130 | 590 | 230 | 560 | 420 | 940
CCOC(=O)[C@@H]1OC(C)(C)O[C@H]1Cn1cc(Cn2c3c(c4ccccc42)C(=O)c2c[n+]([O-])c4ccccc4c2C3=O)nn1 | > 1000 | 1040 | 780 | > 1000 | 570 | > 1000 | 840 | 130
O=C1c2c[n+]([O-])c3ccccc3c2C(=O)c2c1c1ccccc1n2Cc1cn([C@H]2O[C@H](CO)[C@@H](O)[C@H]2O)nn1 | 1340 | 1700 | 710 | 1490 | 340 | 2680 | 950 | 1370
CN(C)CCn1c2c(c3ccccc31)C(=O)c1c[n+]([O-])c3ccccc3c1C2=O | 170 | 160 | 110 | 200 | 140 | 200 | 750 | 
O=C1c2c[n+]([O-])c3ccccc3c2C(=O)c2c1c1ccccc1n2CCCCn1ccnc1 | 130 | 210 | 240 | 130 | 350 | 170 | 150 | 280
O=C1c2c[n+]([O-])c3ccccc3c2C(=O)c2c1c1ccccc1n2CCN1CCCC1 | 520 | 630 | 270 | 320 | 430 | 410 | 930 | 
CC(=O)OC[C@H]1O[C@H](n2cc(Cn3c4c(c5ccccc53)C(=O)c3c[n+]([O-])c5ccccc5c3C4=O)nn2)[C@H](OC(C)=O)[C@@H]1OC(C)=O | 510 | 250 | 150 | 670 | 690 | 430 | 90 | 210
O=C1c2c[n+]([O-])c3ccccc3c2C(=O)c2c1c1ccccc1n2Cc1cn(CC(O)CO)nn1 (stereo not drawn) | > 1000 | 1290 | 250 | 1110 | 440 | 880 | 1070 | 760
CC(=O)OC[C@@H]1OC(C)(C)O[C@H]1Cn1cc(Cn2c3c(c4ccccc42)C(=O)c2c[n+]([O-])c4ccccc4c2C3=O)nn1 | > 1000 | > 1000 | 580 | > 1000 | 430 | > 1000 | 1060 | 10200
CC1(C)O[C@@H](CO)[C@H](Cn2cc(Cn3c4c(c5ccccc53)C(=O)c3c[n+]([O-])c5ccccc5c3C4=O)nn2)O1 | > 1000 | 680 | 130 | 690 | 190 | 370 | 500 | 120
O=C1c2c[n+]([O-])c3ccccc3c2C(=O)c2c1c1ccccc1n2CCCN1CCC(O)CC1 | 130 | 280 | 190 | 190 | 240 | 350 | 120 | 170
CC1(C)OCC(Cn2cc(Cn3c4c(c5ccccc53)C(=O)c3c[n+]([O-])c5ccccc5c3C4=O)nn2)O1 (stereo not drawn) | 230 | 230 | 70 | 290 | 330 | 80 | 120 | 5510
CCCN1CCN(CCCCn2c3c(c4ccccc42)C(=O)c2c[n+]([O-])c4ccccc4c2C3=O)CC1 | 3970 | 2980 | 790 | 1280 | 870 | 320 | 6830 | 
CN(C)CCCCCn1c2c(c3ccccc31)C(=O)c1c[n+]([O-])c3ccccc3c1C2=O | 370 | 240 | 470 | 200 | 560 | 210 | 240 | 70
CC(=O)OC[C@H]1O[C@H](n2cc(Cn3c4c(c5ccccc53)C(=O)c3c[n+]([O-])c5ccccc5c3C4=O)nn2)C[C@@H]1OC(C)=O | > 1000 | 1190 | 380 | 1280 | 550 | 1140 | 2780 | 120
O=C1c2c[n+]([O-])c3ccccc3c2C(=O)c2c1c1ccccc1n2CCCCN1CCOCC1 | 170 | 240 | 90 | 130 | 170 | 90 | 510 | 
CC(=O)OC[C@H]1O[C@@H](n2cc(Cn3c4c(c5ccccc53)C(=O)c3c[n+]([O-])c5ccccc5c3C4=O)nn2)[C@H](OC(C)=O)[C@@H](OC(C)=O)[C@@H]1OC(C)=O | 640 | 400 | 760 | 330 | 560 | 290 | 270 | 2430
CC(=O)OC[C@H]1O[C@@H](n2cc(Cn3c4c(c5ccccc53)C(=O)c3c[n+]([O-])c5ccccc5c3C4=O)nn2)[C@H](OC(C)=O)[C@@H]1OC(C)=O | 1900 | 600 | 650 | 460 | 150 | 1160 | 270 | 900
CC(=O)OC[C@H]1O[C@@H](n2cc(Cn3c4c(c5ccccc53)C(=O)c3c[n+]([O-])c5ccccc5c3C4=O)nn2)C[C@@H]1OC(C)=O | > 500 | 550 | 120 | 550 | 140 | 1830 | 350 | 2540
O=C1c2c[n+]([O-])c3ccccc3c2C(=O)c2c1c1ccccc1n2CCN1CCCCC1 | 1860 | 1050 | 780 | 620 | 180 | 1080 | 1050 | 
O=C1c2c[n+]([O-])c3ccccc3c2C(=O)c2c1c1ccccc1n2CCCCN1CCCCC1 | 230 | 610 | 200 | 150 | 190 | 150 | 610 | 
O=C1c2c[n+]([O-])c3ccccc3c2C(=O)c2c1c1ccccc1n2CCCCN1CCN(CCO)CC1 | 450 | 740 | 330 | 380 | 470 | 200 | 880 | 
CCCCN1CCN(CCCCn2c3c(c4ccccc42)C(=O)c2c[n+]([O-])c4ccccc4c2C3=O)CC1 | 6100 | 900 | 1920 | 6900 | 2150 | 550 | 5690 | 
O=C1c2c[n+]([O-])c3ccccc3c2C(=O)c2c1c1ccccc1n2CCN1CCOCC1 | 2020 | 2030 | 1280 | 1740 | 820 | 560 | 1730 | 
